Data taken from patent publication US12606538B2, “Benzo[b]selenophene sting regulator, preparation method and use thereof” (CHINA PHARMACEUTICAL UNIVERSITY, priority 2021, dated 2026).
≈ marks a conversion by molar mass, not a printed value. Where two headings read alike, the source gives them in different places.

How the values were obtained:
[1] = Stability of rat liver microsome within 2 h; assay type: in vitro ADME
From the text: (§1) The test result was shown in the following table, with MSA2 (Science. 2020, 369, eaba6098) as a reference compound.

[2] = tested on: THP1 cells; assay: Interferon β induction assay based on THP1 cells (ELISA); assay type: cell-based; conditions: Homo sapiens, THP-1, compound 20 μM, 3.5 h, read-out: Secretion of IFNβ in THP1 cells, effect relative to 2′,3′-cGAMP at 20 μM (%)
Description: Secreted cytokine IFNβ was determined by ELISA. THP1 cells were inoculated in a 96-well plate (there was no serum contained in an RPMI 1640 medium), such that the number of cells in each well ranged from 5×10^5 to 7×10^5. A DMSO stock solution of 10 mM was prepared from a compound to be tested, diluted with a culture medium to a target concentration to be added into the 96-well plate containing cells (the final concentration of said compound was 20 μM, and the final volume of each well was 200 μL), and cultured at 37° C. in 5% CO2 for 3.5 h. The cells were collected at 4° C. and centrifuged at 1,000 rpm for 20 mins, and supernate was collected for ELISA determination. There were three repeated wells set in the assay. The result was shown in the following tablet, with 2′,3′-cGAMP as a positive control, where the test result was represented as a percentage of activity relative to 2′,3′-cGAMP at a concentration of 20 μM.

[3] = LogP; assay type: physicochemical
From the text: as §1

[4] = tested on: THP1 cells; assay: THP1 cell growth inhibition activity; assay type: cell-based
From the text: as §1

[5] = Stability of human plasma within 24 h; assay type: in vitro ADME
From the text: as §1

[6] = tested on: THP1-dual cells; assay: Luciferase assay based on THP1-dual cells; assay type: cell-based; conditions: final concentration of compound 10 μL (so in the source), 24 h at 37° C.
Description: (§2) THP1-dual™ (Invivogen: thpd-nfis) cells or RAW-Lucia™ (Invivogen: rawl-isg) cells were diluted using a culture medium, and 180 μL of cell suspension was sucked and inoculated in a 96-well plate, such that each well contain 1×10^5 cells. 20 μL of a compound to be tested was added into the 96-well plate (the final concentration of said compound was […], and the final volume of each well was […]) and cultured at 37° C. for 24 h. 10 μL of supernatant was sucked into a new 96-well white plate, and 50 μL of a QUANT-Luc reagent was added. After full and even mixing, a microplate reader was used immediately for determination. There were three repeated wells set in the assay. The test result was represented as agitation fold and calculated by (test well−blank well)/(negative well−blank well). The test result was in the following tablet, with 2′,3′-cGAMP as a positive control, where *** represented an agitation fold of 20 or more, ** represented an agitation fold of 10 to 20, and * represented an agitation fold of 1 to 10.

[7] = Water solubility; assay type: physicochemical
From the text: as §1

[8] = tested on: RAW-Lucia cells; assay: Luciferase assay based on RAW-Lucia cells; assay type: cell-based; conditions: 24 h at 37° C.
Description: as §2

[9] = stability of rat liver microsome within 2 h
[10] = stability of human plasma within 24 h
[11] = PBS, aqueous buffer, read-out: water solubility, PBS
[12] = water, read-out: water solubility, Water

| Structure (SMILES) | RLM @ 2 h (%) [1, 9] | Emax at 20 µM [2] | logP ([3]; read-out: LogP) | IC50 ([4]; Homo sapiens, THP-1) | hPlasma @ 24 h (%) [5, 10] | Agitation activity in luciferase assay, THP1-dual (agitation fold) [6] | solubility [7, 11] | solubility [7, 12] | Agitation activity in luciferase assay, RAW-Lucia (agitation fold) [8] | RLM @ 2 h (%) ([1]; rat, microsomes, 2 h) | logP [3] | IC50 [4] | hPlasma @ 24 h (%) [5] | water solubility, PBS [7] | water solubility, Water [7] |
| --- | --- | --- | --- | --- | --- | --- | --- | --- | --- | --- | --- | --- | --- | --- | --- |
| COc1cc2cc(C(=O)CCC(=O)O)[se]c2cc1OC [I-1, 4-(5,6-dimethoxybenzo[b]selenophene-2-yl)-4-oxobutanoic acid] | >90% | 259% | 2.5 | > 100 µM | >90% | *** (*** represented an agitation fold of 20 or more) | 1900 µg/mL (≈ 5570 µM) | 36 µg/mL (≈ 106 µM) | *** (*** represented an agitation fold of 20 or more) | – | – | – | – | – | – |
| COc1cc2cc(C(=O)CC(C)C(=O)O)[se]c2cc1OC (stereo not drawn) [I-2, 4-(5,6-dimethoxybenzo[b]selenophene-2-yl)-2-methyl-4-oxo-butanoic acid] | >90% | 245% | 2.4 | > 100 µM | >90% | *** (*** represented an agitation fold of 20 or more) | 1000 µg/mL (≈ 2810 µM) | 30 µg/mL (≈ 84.4 µM) | *** (*** represented an agitation fold of 20 or more) | – | – | – | – | – | – |
| CCC(CC(=O)c1cc2cc(OC)c(OC)cc2[se]1)C(=O)O (stereo not drawn) [I-14, 4-(5,6-dimethoxybenzo[b]selenophene-2-yl)-2-ethyl-4-oxo-butanoic acid] | >90% | 260% | 2.7 | > 100 µM | >90% | *** (*** represented an agitation fold of 20 or more) | 700 µg/mL (≈ 1900 µM) | 28 µg/mL (≈ 75.8 µM) | *** (*** represented an agitation fold of 20 or more) | – | – | – | – | – | – |
| COc1cc2cc(C(=O)CCCC(=O)O)[se]c2cc1OC [I-21, 5-(5,6-dimethoxybenzo[b]selenophene-2-yl)-5-oxo-pentanoic acid] | – | 12% | – | – | – | * (* represented an agitation fold of 1 to 10) | – | – | * (* represented an agitation fold of 1 to 10) | – | – | – | – | – | – |
| COc1cc2cc(C(=O)C3CC3C(=O)O)[se]c2cc1OC (stereo not drawn) [I-22] | – | 115% | – | – | – | ** (** represented an agitation fold of 10 to 20) | – | – | ** (** represented an agitation fold of 10 to 20) | – | – | – | – | – | – |
| COc1cc2cc(C(=O)C3CCC3C(=O)O)[se]c2cc1OC (stereo not drawn) [I-23] | – | 273% | – | – | – | *** (*** represented an agitation fold of 20 or more) | – | – | *** (*** represented an agitation fold of 20 or more) | – | – | – | – | – | – |
| COc1cc2cc(C(=O)C3CCCCC3C(=O)O)[se]c2cc1OC (stereo not drawn) [I-24] | – | 142% | – | – | – | ** (** represented an agitation fold of 10 to 20) | – | – | ** (** represented an agitation fold of 10 to 20) | – | – | – | – | – | – |
| COc1cc2cc(C(=O)CCC(=O)O)sc2cc1OC [MSA2, reference compound] | – | – | – | – | – | – | – | – | – | >90% | 1.5 | > 100 µM | >90% | 0.4 mg/mL (≈ 1360 µM) | 6 µg/mL (≈ 20.4 µM) |
